Reference: the NIST ThermoML archive (doi:10.1021/je400122k)
Numbers after ± are expanded uncertainties.

Conditions: Liquid; for speed of sound: Pulse-echo method; for mass density: Vibrating tube method

CCCCCCCCCCCCCC(=O)OCC [ethyl tetradecanoate]
Conditions	mass density, 293.15 K [kg/m3]	mass density, 303.15 K [kg/m3]	mass density, 313.15 K [kg/m3]	mass density, 323.15 K [kg/m3]	mass density, 333.15 K [kg/m3]	mass density, 343.15 K [kg/m3]	speed of sound, 293.15 K [m/s]	speed of sound, 303.15 K [m/s]	speed of sound, 323.15 K [m/s]	speed of sound, 343.15 K [m/s]
100 kPa	–	–	–	–	–	–	1360.6 ± 5.6	1321.8 ± 5.5	1251.8 ± 5.2	1184.7 ± 4.9
101.3 kPa	861 ± 1	853.3 ± 1	845.6 ± 1	838.5 ± 1	830.6 ± 1	823.2 ± 1	–	–	–	–
10000 kPa	867.5 ± 1	860.2 ± 1	852.7 ± 1	845.4 ± 1	838 ± 1	831.1 ± 1	1408 ± 5.8	1370.9 ± 5.7	1304.5 ± 5.4	1241.3 ± 5.1
20000 kPa	873.2 ± 1.1	866.2 ± 1.1	859 ± 1.1	852 ± 1.1	844.9 ± 1.1	838.6 ± 1.1	1453.3 ± 6	1416.8 ± 5.8	1353.4 ± 5.6	1293 ± 5.3
30000 kPa	878.7 ± 1.1	871.9 ± 1.1	864.9 ± 1.1	858.2 ± 1.1	851.3 ± 1.1	845.2 ± 1.1	1494.5 ± 6.1	1460.6 ± 6	1398.6 ± 5.8	1341.9 ± 5.5
40000 kPa	883.8 ± 1.1	877.3 ± 1.1	870.5 ± 1.1	863.9 ± 1.1	857.2 ± 1.1	851.3 ± 1.1	1533.5 ± 6.3	1500.8 ± 6.2	1441.1 ± 5.9	1386.7 ± 5.7
50000 kPa	888.7 ± 1.1	882.2 ± 1.1	875.7 ± 1.1	869.2 ± 1.1	862.9 ± 1.1	857.1 ± 1.1	1568.2 ± 6.4	1539.9 ± 6.3	1482.4 ± 6.1	1428.8 ± 5.9
60000 kPa	893.6 ± 1.1	887 ± 1.1	880.8 ± 1.1	874.7 ± 1.1	868.2 ± 1.1	862.5 ± 1.1	–	–	1519.7 ± 6.2	1468.1 ± 6
70000 kPa	–	891.7 ± 1.1	885.5 ± 1.1	879.8 ± 1.1	874 ± 1.1	867.7 ± 1.1	–	–	1555.8 ± 6.4	1506.4 ± 6.2
80000 kPa	–	896 ± 1.1	890.8 ± 1.1	884.5 ± 1.1	878 ± 1.2	872.8 ± 1.2	–	–	1590.8 ± 6.5	1541.9 ± 6.3
90000 kPa	–	900.3 ± 1.1	894.9 ± 1.1	888.9 ± 1.2	883.4 ± 1.2	–	–	–	1624.6 ± 6.6	–
100000 kPa	–	904.4 ± 1.1	899.1 ± 1.2	893.1 ± 1.2	888 ± 1.2	–	–	–	1655.7 ± 6.8	–
